Measurements as given in patent US20100209513A1, “PHARMACEUTICAL COMPOSITION CONTAINING MICRONIZED PARTICLES OF NAPHTHOQUINONE-BASED COMPOUND” (priority 2007, published 2010).

Experiments:
[1] = Dissolution test, paddle method (Example 15); type: physicochemical; settings: for Increasing rate of dissolution rate of 12 hours: after versus before microparticulation; for Change of dissolution rate of micronized particles compared to before micronization: different time points, FIGS. 3 to 6, pH 6.8, 1.5% Tween 80, 37° C.; for Dissolution rate of 12 hours after microparticulation / Dissolution rate of 12 hours before microparticulation: paddle 75 rpm, 37° C., pH 6.8, 1.5% Tween 80; for Dissolution rate of 12 hours after microparticulation: after microparticulation (Jet mill or ball mill, no surfactant)
Protocol: Dissolution test was commonly carried out under the following condition.
(§1) The dissolution test was carried out according to the paddle method of Korean Phramacopeia. The paddle rate was 75 rpm, the temperature of an effluent was 37° C., and a test solution was a mixture solution of pH 6.8, 1.5% Tween 80. First, the test solution was filtered through a […] Membrane filter and centrifuged. Supernatant fluid was taken, and the content of drug was analyzed by HPLC, and the amount of released drug was measured at different time points. The drugs used for the dissolution test are Compounds 1, 5, 44 and 51 provided in Table 1, and the extract set forth in the Korean Patent No. 10-818586 which contains Compound 58 over 60 wt % (‘Compound 58 Extract’). Microparticulation was carried out using Jet mill or ball mill without any surfactant. The particle size of compounds was determined by HELOS measurement.

[2] = Particle size before and after micronization, HELOS measurement (Example 15); type: physicochemical; settings: for Particle size X50 after micronization / Particle size X90 after micronization: after micronization by Jet mill or ball mill without surfactant
Protocol: as §1
Measurement of the particle size was carried out by putting approximately 3 ml of a sample into a cell for particle size measurement and measuring the particle size during 60 seconds per sample. The particle sizes before and after micronization are provided below.

[3] = Body weight change in ob/ob mice given suspensions of cryptotanshinone powder or micronized particles (Example 6); type: in vivo; settings: ob/ob male mice; 400 mg/kg PO once a day
Protocol: 1 g of a simply finely-divided powder of cryptotanshinone, and 1 g of each micronized particles of cryptotanshinone compound according to the procedures of Examples 1 to 3 were mixed with 10 mL of distilled water, and the resulting mixtures were processed in a sonicator for 30 min to prepare suspensions of the cryptotanshinone compounds. 400 mg/kg of these suspensions in terms of cryptotanshinone content was administered to ob/ob mice once a day and changes in the body weight (BW) of animals were examined.
For this purpose, 10-week-old ob/ob male mice (Jackson Lab) as an obese mouse model of type 2 diabetes were purchased from Orient Co., Ltd., Korea and were allowed to acclimate to a new environment of the breeding room for 10 days prior to experiments. Animals were fed a solid feed (P5053, Labdiet) as a laboratory animal chow. The ob/ob male mice were housed and allowed to acclimate to a new environment for 10 days, in a breeding room maintained at a temperature of 22±2° C., humidity of 55±5%, and a 12-h light/dark (L/D) cycle (light from 8:00 a.m. to 8:00 p.m.). […]

[4] = Body weight change in DIO (diet-induced obesity) SD rats with varying dosages of micronized cryptotanshinone (Example 7); type: in vivo; settings: for BW loss / Final BW: high-fat diet, Jet mill-micronized with 0.2% SLS
Protocol: Each of formulations composed of a mixture of Jet mill-micronized cryptotanshinone at 25 mg/kg, 50 mg/kg and 100 mg/kg with 0.2% (w/w) sodium lauryl sulfate was administered daily for 28 days to DIO (diet-induced obesity) SD rats in which obesity was caused by high-fat diet for 4 weeks. As a control, a surfactant SLS at a concentration of 0.2% was suspended in distilled water and a suspension was then administered to animals.

[5] = Particle size of micronized particles prepared in Examples 1 to 5; type: physicochemical; settings: cryptotanshinone prior to supercritical micronization
Protocol: In order to develop a supercritical micronization process, 5 g of cryptotanshinone having a particle size distribution of 1 to 100 μm and an average particle size of 30 μm, and 0.5 g of sodium lauryl sulfate were dissolved in 45 mL of methylene chloride. Thereafter, the resulting solution of cryptotanshinone in methylene chloride was injected at a flow rate of 1 to 2 mL/min via a nozzle orifice with a diameter of 1/16 inch into a reaction vessel which was set to a temperature of 30° C., 80 bar, and 2,000 rpm and was filled with liquefied carbon dioxide, whereas carbon dioxide was injected at a flow rate of 10 to 20 mL/min via a nozzle orifice with a diameter of 1/16 inch using an ISCO pump.
In order to recover precipitates of small-sized particles from the liquid carbon dioxide solution as an insoluble solvent in the reaction vessel, a volume of carbon dioxide which is 15-fold that of the reaction vessel was flowed to remove the remaining organic solvent and the pressure of the reaction vessel was reduced to recover micronized particles of cryptotanshinone. […]
Micronizing of cryptotanshinone was carried out using a Jet mill (SJ-100, Nisshin, Japan). […] Micronized particles were recovered and a particle size was determined in terms of particle diameter by […]. […]

| Compound | Increasing rate of dissolution rate of 12 hours [1] | Change of dissolution rate of micronized particles compared to before micronization [1] | Dissolution rate of 12 hours after microparticulation [1] | Dissolution rate of 12 hours before microparticulation [1] | Particle size X50 after micronization [2] | Particle size X90 after micronization [2] | Particle size X50 before micronization [2] | Particle size X90 before micronization [2] | Final BW [3] | Loss of body weight compared to the control group ([4]; 25, 50 and 100 mg/kg daily for 28 days, concentration-dependent) | BW loss ([4]; 25 mg/kg daily for 28 days) | Final BW ([4]; 25 mg/kg daily for 28 days) | BW loss ([4]; 50 mg/kg daily for 28 days) | Final BW ([4]; 50 mg/kg daily for 28 days) | BW loss ([4]; 100 mg/kg daily for 28 days) | Final BW ([4]; 100 mg/kg daily for 28 days) | Average particle size [5] |
| --- | --- | --- | --- | --- | --- | --- | --- | --- | --- | --- | --- | --- | --- | --- | --- | --- | --- |
| CC1(C)CCC2=C(O1)c1ccccc1C(=O)C2=O [Compound 1, 7,8-dihydro-2,2-dimethyl-2H-naphtho(2,3-b)dihydropyran-7,8-dione] | 42% | increased significantly | 95.52% | 67.19% | X50 = 2.39 μm | X90 = 5.03 μm | X50 = 27.83 μm | X90 = 33.74 μm | – | – | – | – | – | – | – | – | – |
| C[C@H]1COC2=C1C(=O)C(=O)c1c2ccc2c1CCCC2(C)C [Simply finely-divided cryptotanshinone, cryptotanshinone] | – | – | – | – | – | – | – | – | 57.5 ± 1.3 g | – | – | – | – | – | – | – | – |
| cryptotanshinone [Compound 58] | – | – | – | – | – | – | – | – | – | significant loss of body weight | 16.9 ± 3.8% | 589.0 ± 50.4 g | 15.4 ± 3.7% | 578.8 ± 54.6 g | 6.2 ± 5.5% | 529.8 ± 59.1 g | 30 μm |

Continued, in another order:

| Increasing rate of dissolution rate of 12 hours [1] | Change of dissolution rate of micronized particles compared to before micronization [1] | Dissolution rate of 12 hours after microparticulation [1] | Dissolution rate of 12 hours before microparticulation [1] | Particle size X50 after micronization [2] | Particle size X90 after micronization [2] | Particle size X50 before micronization [2] | Particle size X90 before micronization [2] | Compound | Final BW [3] | Loss of body weight compared to the control group ([4]; 25, 50 and 100 mg/kg daily for 28 days, concentration-dependent) | BW loss ([4]; 25 mg/kg daily for 28 days) | Final BW ([4]; 25 mg/kg daily for 28 days) | BW loss ([4]; 50 mg/kg daily for 28 days) | Final BW ([4]; 50 mg/kg daily for 28 days) | BW loss ([4]; 100 mg/kg daily for 28 days) | Final BW ([4]; 100 mg/kg daily for 28 days) | Average particle size [5] |
| --- | --- | --- | --- | --- | --- | --- | --- | --- | --- | --- | --- | --- | --- | --- | --- | --- | --- |
| 10% | increased significantly | 86.12% | 78.12% | X50 = 2.48 μm | X90 = 5.38 μm | X50 = 3.61 μm | X90 = 20.09 μm | CC1CC2=C(O1)c1ccccc1C(=O)C2=O (stereo not drawn) [Compound 5] | – | – | – | – | – | – | – | – | – |
| – | increased significantly | 41.05% | 13.81% | X50 = 2.41 μm | X90 = 24.57 μm | X50 = 3.15 μm | X90 = 22.41 μm | CC1OC2=C(C(=O)C(=O)c3c2ccc2c3CCCC2)C1(C)C (stereo not drawn) [Compound 44] | – | – | – | – | – | – | – | – | – |
| – | increased significantly | 51.3% | 24.08% | X50 = 3.05 μm | X90 = 13.48 μm | X50 = 5.08 μm | X90 = 21.97 μm | Cc1cc2c(c3ccccc13)C(=O)C(=O)C1=C2OC(C)C1(C)C (stereo not drawn) [Compound 51] | – | – | – | – | – | – | – | – | – |
